Results reported in US10961215B2, “N-aryl and N-heteroaryl piperidine derivatives as liver X receptor beta agonists, compositions, and their use” (Merck Sharp & Dohme Corp., priority 2016, dated 2021).

Experiments:
[1] = biological target: T1, GST tagged LXRbeta LBD (ligand binding domain) (Homo sapiens, UniProt P55055); assay: LanthaScreen TR-FRET Liver X Receptor Coactivator Assay, LXR beta-LBD (co-activator recruitment; IP and % Emax relative to T0901317); type: biochemical; settings: for EC50: Inflection Point of co-activator recruitment, LXR beta-LBD, TR-FRET; for Emax: efficacy at max dose in relation to reference T0901317, LXR beta-LBD, read-out: LXR beta actiivty at max dose (%)
T1 construct: purchased Invitrogen pv4658.pps
T1 sequence (P55055 222-460 limits assumed): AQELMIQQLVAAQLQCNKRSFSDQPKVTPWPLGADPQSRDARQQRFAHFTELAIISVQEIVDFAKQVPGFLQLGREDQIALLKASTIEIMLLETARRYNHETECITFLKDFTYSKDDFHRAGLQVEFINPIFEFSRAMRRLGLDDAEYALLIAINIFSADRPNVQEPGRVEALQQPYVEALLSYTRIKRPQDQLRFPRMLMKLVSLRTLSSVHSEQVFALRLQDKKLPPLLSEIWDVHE
Method in brief: (§1)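 Readout is time-resolved FRET between a terbium anti-GST antibody bound to the tagged LBD and a fluorescein-labelled coactivator peptide recruited on ligand binding. Samples are incubated at room temperature before reading, and efficacy is expressed against T0901317.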

[2] = biological target: T2, GST tagged LXRalpha LBD (ligand binding domain) (Homo sapiens, UniProt Q13133); assay: LanthaScreen TR-FRET Liver X Receptor Coactivator Assay, LXR alpha-LBD (co-activator recruitment; IP and % Emax relative to T0901317); type: biochemical; settings: for LXR alpha IP (nM) / EC50: Inflection Point of co-activator recruitment, LXR alpha-LBD, TR-FRET; for Emax: efficacy at max dose in relation to reference T0901317, LXR alpha-LBD, read-out: LXR alpha actiivty at max dose (%)
T2 construct: purchased Invitrogen pv4655
T2 sequence (Q13133 209-447 limits assumed): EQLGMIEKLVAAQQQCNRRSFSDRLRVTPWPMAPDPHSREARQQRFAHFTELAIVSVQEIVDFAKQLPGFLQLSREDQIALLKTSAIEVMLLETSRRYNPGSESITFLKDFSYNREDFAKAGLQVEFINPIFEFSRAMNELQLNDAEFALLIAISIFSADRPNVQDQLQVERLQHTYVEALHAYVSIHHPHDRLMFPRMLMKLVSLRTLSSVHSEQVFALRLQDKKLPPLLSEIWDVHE
Method in brief: as §1

Row | SMILES | EC50 [1] | Emax [1] | LXR alpha IP (nM) [2] | Emax [2] | EC50 [2]
1 | COc1cccc([C@@](O)(C(=O)NC[C@H](F)CC2CCN(c3ccc(C(=O)N(C)C)c(Cl)n3)CC2)C(F)(F)F)c1 [Example 3-7, 2-chloro-6-(4-((R)-2-fluoro-3-((R)-3,3,3-trifluoro-2-hydroxy-2-(3-methoxy-phenyl)propanamido)propyl)piperidin-1-yl)-N,N-dimethylnicotinamide] | 425 nM | 94% | No IP | 13% | 
2 | COc1cccc([C@@](O)(C(=O)N(C)[C@H]2C[C@H](C3CCN(c4ccc(C(=O)N(C)C)c(Cl)n4)CC3)C2)C(F)(F)F)c1 [Example 17-3, Trans-2-chloro-N,N-dimethyl-6-(4-(-3-((R)-3,3,3-trifluoro-2-hydroxy-2-(3-methoxyphenyl)-N-methylpropanamido)cyclobutyl)piperidin-1-yl)nicotinamide] | 27 nM | 65% | No IP | 12% | 
3 | CN(C)C(=O)c1ccc(N2CCC(CCCN(C)C(=O)C(O)(c3cccc(O)c3)C(F)(F)F)CC2)nc1Cl (stereo not shown) [Example 1-45, 2-chloro-N,N-dimethyl-6-(4-(3-(3,3,3-trifluoro-2-hydroxy-2-(3-hydroxyphenyl)-N-methylpropanamido)propyl)piperidin-1-yl)nicotinamide] | 45 nM | 82% |  | 32% | 2510 nM
4 | COc1cccc([C@@](O)(C(=O)N(C)C[C@@H]2C[C@@H]2C2CCN(c3ccc(C(=O)N(C)C)c(Cl)n3)CC2)C(F)(F)F)c1 [Example 15-3, 2-chloro-N,N-dimethyl-6-(4-((1R,2R)-2-(((R)-3,3,3-trifluoro-2-hydroxy-2-(3-methoxyphenyl)-N-methylpropanamido)methyl)cyclopropyl)piperidin-1-yl)nicotinamide] | 17 nM | 58% | No IP | 10% | 
5 | COc1cccc([C@@](O)(C(=O)N(C)CCCC2CCN(c3ccc(C(=O)N4CC(N)C4)c(Cl)n3)CC2)C(F)(F)F)c1 [Example 2-13, (R)-N-(3-(1-(5-(3-aminoazetidine-1-carbonyl)-6-chloropyridin-2-yl)piperidin-4-yl)propyl)-3,3,3-trifluoro-2-hydroxy-2-(3-methoxyphenyl)-N-methylpropanamide] | 195 nM | 60% | No IP | 11% | 
6 | CC(C)[C@](O)(C(=O)N(C)CCCC1CCN(c2ccc(C(=O)N(C)C)c(Cl)n2)CC1)C(F)(F)F [Example 1-4, (S)-2-chloro-6-(4-(3-(2-hydroxy-N,3-dimethyl-2-(trifluoromethyl)butanamido)propyl)piperidin-1-yl)-N,N-dimethylnicotinamide] | 82 nM | 92% |  | 52% | 1180 nM
7 | COc1cccc([C@@](O)(C(=O)NCC[C@H]2CC23CCN(c2ccc(C(=O)N(C)C)c(Cl)c2)CC3)C(F)(F)F)c1 [Example 7-32, 2-chloro-N,N-dimethyl-4-((R)-1-(2-((R)-3,3,3-trifluoro-2-hydroxy-2-(3-methoxyphenyl)propanamido)ethyl)-6-azaspiro[2.5]octan-6-yl)benzamide] | 284 nM | 69% | No IP | 17% | 
8 | COc1cccc([C@@](O)(C(=O)N(C)CC[C@H]2CC23CCN(c2ccc(C(=O)N(C)C(C)C)c(Cl)n2)CC3)C(F)(F)F)c1 [Example 7-17, 2-chloro-N-isopropyl-N-methyl-6-((R)-1-(2-((R)-3,3,3-trifluoro-2-hydroxy-2-(3-methoxyphenyl)-N-methylpropanamido)ethyl)-6-azaspiro[2.5]octan-6-yl)nicotinamide] | 12 nM | 59% |  | 36% | 160 nM
9 | CN(C)C(=O)c1ccc(N2CCC(CCCN(C)C(=O)[C@@]3(c4ccccc4)CCOC3)CC2)nc1Cl [Example 1-55, (R)-2-chloro-N,N-dimethyl-6-(4-(3-(N-methyl-3-phenyltetrahydrofuran-3-carboxamido)propyl)piperidin-1-yl)nicotinamide] | 856 nM | 48% | No IP | 16% | 
10 | CN(C)C(=O)c1ccc(N2CCC(CCCN(C)C(=O)[C@@](O)(c3cc(F)cc(Cl)c3)C(F)(F)F)CC2)nc1Cl [Example 1-11, (S)-2-chloro-6-(4-(3-(2-(3-chloro-5-fluorophenyl)-3,3,3-trifluoro-2-hydroxy-N-methylpropanamido)propyl)piperidin-1-yl)-N,N-dimethylnicotinamide] | 453 nM | 59% | No IP | 0% | 
11 | CN(C)C(=O)c1ccc(N2CCC3(CC2)CC3CCN(C)C(=O)[C@](O)(c2ccccc2)C(F)(F)F)cc1Cl (stereo partly drawn) [Example 7-2, 2-chloro-N,N-dimethyl-4-(1-(2-((R)-3,3,3-trifluoro-2-hydroxy-N-methyl-2-phenylpropanamido)ethyl)-6-azaspiro[2.5]octan-6-yl)benzamide] | 14 nM | 73% |  | 44% | 534 nM
12 | CN(C)C(=O)c1ccc(N2CCC(CCCN(C)C(=O)C3(c4ccccc4)CCOCC3)CC2)nc1Cl [Example 1-17, 2-chloro-N,N-dimethyl-6-(4-(3-(N-methyl-4-phenyl-tetrahydro-2H-pyran-4-carboxamido)propyl)piperidin-1-yl)nicotinamide] | 290 nM | 55% | No IP | 7% | 
13 | CN(C)C(=O)c1ccc(N2CCC([C@@H]3C[C@H]3CN(C)C(=O)[C@](O)(c3ccccc3)C(F)(F)F)CC2)cc1Cl [Example 15-19, 2-chloro-N,N-dimethyl-4-(4-((1S,2R)-2-(((R)-3,3,3-trifluoro-2-hydroxy-N-methyl-2-phenylpropanamido)methyl)cyclopropyl)piperidin-1-yl)benzamide] | 127 nM | 72% | No IP | 0% | 

Further compounds by falling EC50 [1], results first:

Row | EC50 [1] | Emax [1] | LXR alpha IP (nM) [2] | Emax [2] | EC50 [2] | SMILES
14 | 1380 nM | 23% | No IP | 0% |  | CC(C)=C(C(=O)N(C)CCCC1CCN(c2ccc(C(=O)N(C)C)c(Cl)n2)CC1)c1ccccc1 [Example 1-61, 2-chloro-6-(4-(3-(N,3-dimethyl-2-phenylbut-2-enamido)propyl)piperidin-1-yl)-N,N-dimethylnicotinamide]
15 | 1330 nM | 39% |  | 29% | 3780 nM | CNC(=O)c1ccc(N2CCC([C@H]3C[C@H]3CNC(=O)[C@](O)(c3ccccc3)C(F)(F)F)CC2)nc1Cl [Example 15-12, 2-chloro-N-methyl-6-(4-((1R,2R)-2-(((R)-3,3,3-trifluoro-2-hydroxy-2-phenylpropanamido)methyl)cyclopropyl)piperidin-1-yl)nicotinamide]
16 | 508 nM | 93% |  | 22% | 6010 nM | CNC(=O)c1ccc(N2CCC(CC3CC(NC(=O)[C@](O)(c4ccccc4)C(F)(F)F)C3)CC2)cc1Cl (stereo partly drawn) [Example 11-3, (R)-2-chloro-N-methyl-4-(4-((3-(3,3,3-trifluoro-2-hydroxy-2-phenylpropanamido)cyclobutyl)methyl)piperidin-1-yl)benzamide]
17 | 401 nM | 43% | No IP | 0% |  | CCc1cccc([C@@](O)(C(=O)NCCCC2CCN(c3ccc(C(=O)N(C)C)c(Cl)n3)CC2)C(F)(F)F)c1 [Example 5-17, (R)-2-chloro-6-(4-(3-(2-(3-ethylphenyl)-3,3,3-trifluoro-2-hydroxypropanamido)propyl)piperidin-1-yl)-N,N-dimethylnicotinamide]
18 | 120 nM | 40% | No IP | 0% |  | CN(C)C(=O)c1ccc(N2CCC(CCCCN(C)C(=O)C(O)(c3ccccc3)C(F)(F)F)CC2)cc1Cl (stereo not shown) [Example 4-11, 2-chloro-N,N-dimethyl-4-(4-(4-(3,3,3-trifluoro-2-hydroxy-N-methyl-2-phenylpropanamido)butyl)piperidin-1-yl)benzamide]
19 | 12 nM | 58% |  | 37% | 680 nM | COc1cccc([C@@](O)(C(=O)N(C)CC[C@H]2CC23CCN(c2ccc(C(=O)N(C)C)c(Cl)n2)CC3)C(F)(F)F)c1 [Example 7-15, 2-chloro-N,N-dimethyl-6-((R)-1-(2-((R)-3,3,3-trifluoro-2-hydroxy-2-(3-methoxyphenyl)-N-methylpropanamido)ethyl)-6-azaspiro[2.5]octan-6-yl)nicotinamide]
